# Measured values: US20260174673A1, “COMPOSITIONS AND METHODS USING A COMBINATION OF OLEUROPEIN AND TAURINE” (SOCIÉTÉ DES PRODUITS NESTLÉ S.A., priority 2022, published 2026)
# System: myotubes differentiated from C2C12 cells
# Experiment: Mitochondrial calcium rise in C2C12 myotubes (mitochondrial aequorin luminescence)
# Format: cell-based
# Conditions: C2C12-derived myotubes, taurine alone at the indicated concentrations (μM) vs. control, compounds added 2 hours before measurement, 28 experiments, P<0.05 one-way ANOVA
# Protocol: To test the effect of oleuropein (or oleuropein aglycone), taurine and their combination in living cells, the inventors measured mitochondrial calcium rise in myotubes differentiated from C2C12 cells. C2C12 cells were purchased from ATCC. C2C12 cells were seeded in 96-well plates at a density of 8000 cells per well in DMEM high glucose (Gibco)+10% fetal calf serum. Myotubes were differentiated by growing the C2C12 cells in DMEM containing 2% horse serum, for 4 days. Mitochondrial calcium measurements were carried out using myotubes infected with the adenovirus (from Sirion biotech) expressing the mitochondrially targeted calcium sensor mitochondrial mutated aequorin (Montero et al., 2002 Biochem J. 2002 Jul. 15; 365(Pt 2): 451-9). For aequorin reconstitution, 24 hours after infection, myotubes were incubated for 2 h at room temperature (22±°C.) in standard medium (145 mM NaCl, 5 mM KCl, 1 mM MgCl2, 1 mM CaCl2, 10 mM glucose and 10 mM Hepes, pH 7.4) with 1 μM wild-type coelenterazine. […] Luminescence was measured at the FLIPR Tetra Aequorin (Molecular Devices). Calibration of the luminescence data into calcium concentration was carried out using an algorithm as described previously (Montero et al, 2002, Biochem J. 2002 Jul. 15; 365(Pt 2): 451-9)). Custom module analysis based on Excel (Microsoft) and GhaphPad Prism 7.02 (GraphPad) software was used for quantification.
structure (smiles),measurement,setting,value
"NCCS(=O)(=O)O [Taurine, 2-aminoethanesulfonic acid]","integrated mitochondrial calcium rise, evoked by 5 mM caffeine",,enhances mitochondrial Ca2+ elevation
same,"integrated mitochondrial calcium rise, evoked by 5 mM caffeine",listed as taurine,enhances mitochondrial function
